Like-named read-outs stand apart in the source and are kept apart here. Residues, ends and D or L forms follow the SMILES beside them.
Experiments:
[1] = test system: Fusarium graminearum
[2] = test system: Alternaria brassicicola
[3] = test system: Phytophthora capsici
[4] = test system: Botrytis cinerea
[5] = test system: Fusarium oxysporum; type: cell-based

## CSCC[C@H](NC(=O)[C@H](CCCCN)NC(=O)[C@@H](N)CCCCN)C(=O)N1CCC[C@H]1C(=O)N[C@@H](CS)C(=O)N[C@@H](CCCCN)C(=O)N[C@@H](CCCNC(=N)N)C(=O)N[C@@H](CCCNC(=N)N)C(=O)N[C@@H](CCCNC(=N)N)C(=O)N[C@@H](CC(=O)O)C(=O)N[C@@H](CS)C(=O)N[C@@H](CCCCN)C(=O)N[C@H](C(=O)N[C@@H](Cc1ccc(O)cc1)C(=O)N1CCC[C@H]1C(=O)N[C@@H](CS)C(=O)N1CCC[C@H]1C(=O)N[C@@H](Cc1c[nH]cn1)C(=O)N1CCC[C@H]1C(=O)N[C@@H](CCCCN)C(=O)N[C@H](C(=O)N[C@@H](CCCNC(=N)N)C(=O)N[C@@H](CC(=O)O)C(=O)N[C@@H](CS)C(=O)N[C@H](C(=O)N[C@@H](CCCCN)C(=O)NCC(=O)N[C@@H](Cc1ccc(O)cc1)C(=O)N[C@@H](CS)C(=O)N[C@@H](CCCCN)C(=O)N[C@@H](CS)C(=O)N[C@H](C(=O)N[C@H](C(=O)N[C@@H](CCCNC(=N)N)C(=O)O)C(C)C)C(C)C)C(C)C)C(C)C)[C@@H](C)O [NCR7-S] (H-KKMPCKRRRDCKTYPCPHPKVRDCVKGYCKCVVR-OH; N-terminus and C-terminus assumed)
[1]
  Fusarium graminearum MIC: 6 µM
  IC50: 4 µM
[2]
  Alternaria brassicicola MIC: 6 µM
  IC50: 4 µM
[3]
  IC50: > 6 µM
  Phytophthora capsici MIC: >6 µM
[4]
  Botrytis cinerea MIC: 6 µM
  IC50: 3000 nM

## TKPCQSDKDCKKFACRKPKVPKCINGFCKCVR (listed as Cicer arietinum) [NCR13-P]
[1]
  Fusarium graminearum MIC: 3 µM
[1]; read-out: Fusarium graminearum IC50
  IC50: 2 µM
[2]
  Alternaria brassicicola MIC: 4 µM
[2]; read-out: Alternaria brassicicola IC50
  IC50: 2 µM
[3]
  Phytophthora capsici MIC: >6 µM
  growth inhibition of P. capsici (in words): inactive
[3]; read-out: Phytophthora capsici IC50
  IC50: > 6 µM
[5]
  Fusarium oxysporum MIC: 2 to 3 µM
  IC50: 1000 nM
[4]
  Botrytis cinerea MIC: 3 µM
[4]; read-out: Botrytis cinerea IC50
  IC50: 1000 nM

## CC[C@H](C)[C@H](NC(=O)[C@H](CS)NC(=O)[C@H](CCCCN)NC(=O)[C@@H]1CCCN1C(=O)[C@@H](NC(=O)[C@H](CCCCN)NC(=O)[C@@H]1CCCN1C(=O)[C@H](CCCCN)NC(=O)[C@H](CCCNC(=N)N)NC(=O)[C@H](CS)NC(=O)[C@H](C)NC(=O)[C@H](Cc1ccccc1)NC(=O)[C@H](CCCCN)NC(=O)[C@H](CCCCN)NC(=O)[C@H](CS)NC(=O)[C@H](CC(=O)O)NC(=O)[C@H](CCCCN)NC(=O)[C@H](CC(=O)O)NC(=O)[C@H](CO)NC(=O)[C@H](CCC(N)=O)NC(=O)[C@H](CS)NC(=O)[C@@H]1CCCN1C(=O)[C@H](CCCCN)NC(=O)[C@@H](N)[C@@H](C)O)C(C)C)C(=O)N[C@@H](CC(N)=O)C(=O)NCC(=O)N[C@@H](Cc1ccccc1)C(=O)N[C@@H](CS)C(=O)N[C@@H](CCCCN)C(=O)N[C@@H](CS)C(=O)N[C@H](C(=O)N[C@@H](CCCNC(=N)N)C(=O)O)C(C)C [NCR13-S] (H-TKPCQSDKDCKKFACRKPKVPKCINGFCKCVR-OH)
[1]
  Fusarium graminearum MIC: 6 µM
  IC50: 4 µM
[2]
  Alternaria brassicicola MIC: 6 µM
  IC50: 4 µM
[3]
  IC50: > 6 µM
  Phytophthora capsici MIC: >6 µM
[4]
  Botrytis cinerea MIC: 3 µM
  IC50: 1500 nM

## CC(C)[C@H](NC(=O)[C@H](CS)NC(=O)[C@H](CCCCN)NC(=O)[C@H](CS)NC(=O)[C@H](Cc1ccccc1)NC(=O)CNC(=O)[C@H](CC(N)=O)NC(=O)[C@@H](NC(=O)[C@H](CS)NC(=O)[C@H](CC(N)=O)NC(=O)[C@@H]1CCCN1C(=O)[C@@H](NC(=O)[C@H](CCCCN)NC(=O)[C@@H]1CCCN1C(=O)[C@@H](NC(=O)[C@@H]1CCCN1C(=O)[C@H](CS)NC(=O)[C@H](CCCNC(=N)N)NC(=O)[C@H](Cc1ccc(O)cc1)NC(=O)[C@@H](NC(=O)[C@H](CCCCN)NC(=O)[C@H](CS)NC(=O)[C@H](Cc1c[nH]cn1)NC(=O)[C@H](CCCCN)NC(=O)[C@H](CCCNC(=N)N)NC(=O)[C@H](CO)NC(=O)[C@H](CCCCN)NC(=O)[C@H](CS)NC(=O)[C@@H]1CCCN1C(=O)[C@H](CCC(N)=O)NC(=O)[C@H](CCCCN)NC(=O)[C@@H](N)[C@@H](C)O)[C@@H](C)O)[C@@H](C)O)C(C)C)C(C)C)C(=O)N[C@@H](CCCNC(=N)N)C(=O)O [NCR15-S] (H-TKQPCKSRKHCKTYRCPTPKVPNCVNGFCKCVR-OH; N-terminus and C-terminus assumed)
[1]
  Fusarium graminearum MIC: 6 µM
  IC50: 4 µM
[2]
  Alternaria brassicicola MIC: 6 µM
  IC50: 3 µM
[3]
  IC50: > 6 µM
  Phytophthora capsici MIC: >6 µM
[4]
  Botrytis cinerea MIC: 6 µM
  IC50: 3000 nM

B1: TKPCQSDKDCKKFACRKPKVPKCINGFCKCVRAPKKVEPTKPCQSDKDCKKFACRKPKVPKCINGFCKCVR (protein)
chain: TKPCQSDKDCKKFACRKPKVPKCINGFCKCVRAPKKVEPTKPCQSDKDCKKFACRKPKVPKCINGFCKCVR
notes: two NCR13 monomers linked in tandem by the APKKVEP spacer peptide from MtDef5 defensin, 71 amino acids
[1]; in vitro growth inhibition
  Fusarium graminearum MIC: 1.5 µM
[1]; read-out: Fusarium graminearum IC50, in vitro growth inhibition
  IC50: 1 µM
[5]
  Fusarium oxysporum MIC: 0.3 µM
  IC50: 100 nM
  antifungal activity against F. oxysporum (in words): significantly more active
[4]
  antifungal activity against B. cinerea (in words): significantly more active
[4]; in vitro growth inhibition
  Botrytis cinerea MIC: 1.5 µM
[4]; read-out: Botrytis cinerea IC50, in vitro growth inhibition
  IC50: 750 nM

From patent US12604903B2 (priority 2019, dated 2026)
